Data reported in patent EP4201929A1, “QUINOXALINE THIOREDOXIN REDUCTASE INHIBITORS” (geneXplain GmbH, priority 2021, dated 2023).

Assays:
Type in all cases: cell-based
MCF7 cells = assay: Apoptosis detection by FACS (Annexin V staining); conditions: 2 µM, 24h treatment
Description: Cells were placed on 12-well plate at a density of 30000/cm^2 and treated with compounds. After 24h incubation cells were harvested by trypsinization, fixed with 70% ethanol, treated with RNase A (0.25 mg/ml) and stained with Annexin V according to manufacturer's instructions (Thermo Fisher Scientific). Samples were analyzed on a Becton Dickinson FACScan. Data were analyzed by the CellQuest software, version 3.2.1.
To find out whether the growth suppression by 1d*HCl is due to triggering cell death by apoptosis, we performed the Annexin V-mediated staining of phosphatidylserine, exposed on surface of cells undergoing apoptotic cell death. We detected Annexin V-positive cells using FACS.

[1] = tested on: reactive oxygen species (ROS); assay: Oxidative stress measurement (DCFH-DA-based assay)
Description: Cells were treated with compounds and incubated 30 min with 10 µM DCF-DA in serum free medium. Afterward, cells were trypsinized, washed with PBS and fluorescence was analyzed by a FACSCalibur flow cytometer (BD Biosciences) using FL1-H channel.
To get insight into the mechanism of the anti-tumor activity of 1d*HCl, we tested the level of oxidative stress upon treatment. We measured the induction of reactive oxygen species (ROS), using 2'-7'-Dichlorodihydrofluorescein diacetate (DCFH-DA)-based assay. […] After 8h of treatment, the induction of reactive oxygen species (ROS) was much higher.

TrxRl = target: T1, TrxRl (Homo sapiens, UniProt Q16881); assay: TrxR1 enzymatic activity measurement in cellulo (TXN-dependent insulin reduction assay); conditions: MCF7 breast cancer cells, 5 or 10 µM, 2h after treatment, depending on concentration
T1 construct: endogenous in cells; host or cells: MCF7 (A37, A39); HCT116 (A39)
Description: MCF7 cells were treated with 5 or 10 µM 1d*HCl or DMSO as a control. Cells were collected 2 h and 6 h after treatment, washed twice with PBS, and lysed in 100 µL of lysis buffer (50 mM Tris-HCl, 2mM EDTA, 0.15 M NaCl, 1% Triton X-100, protease inhibitors (Roche), pH 7.5). Cells were scraped, collected and snap frozen. After three freeze-thawing cycles the lysate was spinned down, supernatant collected and protein concentration measured using Pierce bicinchoninic acid assay kit (BCA, from Thermofisher Scientific) according to the manufacturer's protocol. To measure TrxR activity, the end-point TXN-dependent insulin reduction assay was used, essentially as described previously (WC Stafford, et al, Irreversible inhibition of cytosolic thioredoxin reductase 1 as a mechanistic basis for anti-cancer therapy, Sci Transl Med (2018), Feb 14;10(428):eaaf7444. doi: 10.1126/scitranslmed.aaf7444). […] After 0, 15 and 30 min, 10 µL aliquots were taken and combined with 6 M guanidine-HCl and 2.5 mM DTNB in 96-well plates (PerkinElmer), whereupon the absorbance at 412 nm was measured using microplate spectrophotometer (TECAN). Levels of active TrxR were normalised to DMSO control samples from each treatment timepoint.
Having established that 1d*HCl inhibits TrxR1activity in vitro, it was important to confirm that 1d*HCl targets TrxRl in living cells. […]

GR = GR (Homo sapiens, UniProt P00390); assay: GR activity in cells
Source text: Having established that 1d*HCl inhibits TrxR1activity in vitro, it was important to confirm that 1d*HCl targets TrxRl in living cells. Therefore, we tested whether 1d*HCl is able to inhibit the enzymatic activity of TrxRl in MCF7 breast cancer cells. […] In contrast, GR activity was not inhibited by 1d*HCl in cells, which is in line with the in vitro results. Thus, we conclude that 1d*HCl selectively targets TrxRl in cancer cells and inhibits its activity, leading to the induction of ROS and oxidative stress.

TrxRl covalent dimers = target: T2, TrxRl covalent dimers (Homo sapiens, UniProt Q16881); assay: Detection of TrxR dimers by Western blot; conditions: HCT116 and MCF7 cells, 5 µM, detected as soon as 2h after treatment
T2 construct: endogenous in cells; host or cells: MCF7 (A37, A39); HCT116 (A39)
Description: (§1) The extraction of total cell lysates and western blot were performed according to standard procedure. The antibodies used for immunoblotting were: p53 (sc-126, Santa Cruz Biotechnology), γH2AX (#07-164, Millipore), TrxRl 19A1 (AbFrontier). Anti-β-actin monoclonal antibody (Millipore) was used as loading control. The horseradish peroxidase-coupled secondary antibodies (Jackson ImmunoResearch) and SuperSignal™ West Dura Extended Duration Substrate detection system (Thermo Fischer Scientific), and images were visualized using ChemiDoc Imaging System (Bio-Rad).
MCF7 or HCT116 cells were treated in culture with 5 or 10 µM of 1d*HCl (Example 4) in complete medium for 2h or 6h. For each case, duplicate drug treated samples were produced plus duplicate control treatment samples using equal volumes of the drug vehicle dimethyl sulfoxide. Detached cells from each biological replicate were washed, suspended in PBS containing protease inhibitors and cells lysed through freeze thaw cycles in liquid N2, according to the reference protocol. Soluble fraction was separated from precipitated protein by ultracentrifugation at 100000 g for 30 minutes at 4°C and TrxRl dimer formation was analysed using Western blot as described above. […]

p53 = p53 induction by Western blot; conditions: sign of DNA damage
Description: as §1
The majority of chemotherapeutic drugs used currently in the clinic, are DNA damaging drugs. Induction of DNA damage is a very efficient way of elimination of cancer cells. Unfortunately, these drugs induce DNA damage also in normal cells, leading to severe side effects. We addressed the question whether 1d*HCl induces DNA damage. We tested this by detection of a hallmark of DNA damage, induction of phosphorylated histone H2AX, so called γH2AX. We used anti-yH2AX antibody to detect it in cells treated with 1d*HCl.

cancer cells = assay: Cell growth assay in combination with BSO
Description: Further, we tested whether the inhibition of GR by BSO will have additive effect with 1d*HCl. If 1d*HCl mechanism of action includes inhibition of GR, BSO will not have an additive effect. We used a range of concentrations of 1d*HCl and BSO in cell growth assays.
Next, we tested whether the prevention of oxidative stress by NAC will affect the growth suppression by the combination of 1d*HCl and BSO. In the presence of NAC we observed the additive effect of 1d*HCl with 50 µM BSO only at twice higher dose of 1d*HCl - 10 µM.

GR, sequence (P00390 44-522): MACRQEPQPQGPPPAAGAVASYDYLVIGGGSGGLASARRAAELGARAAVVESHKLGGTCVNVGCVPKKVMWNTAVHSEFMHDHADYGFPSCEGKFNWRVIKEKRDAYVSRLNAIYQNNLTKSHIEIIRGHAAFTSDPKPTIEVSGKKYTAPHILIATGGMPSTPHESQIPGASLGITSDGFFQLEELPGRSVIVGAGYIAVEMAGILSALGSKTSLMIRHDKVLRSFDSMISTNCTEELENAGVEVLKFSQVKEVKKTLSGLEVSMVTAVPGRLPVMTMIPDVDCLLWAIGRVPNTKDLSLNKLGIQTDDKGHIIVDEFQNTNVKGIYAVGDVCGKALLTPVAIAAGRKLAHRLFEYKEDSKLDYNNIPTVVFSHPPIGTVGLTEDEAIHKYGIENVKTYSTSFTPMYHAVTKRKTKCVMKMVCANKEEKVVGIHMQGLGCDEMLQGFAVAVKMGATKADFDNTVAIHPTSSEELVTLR
T1 sequence (Q16881 151-649): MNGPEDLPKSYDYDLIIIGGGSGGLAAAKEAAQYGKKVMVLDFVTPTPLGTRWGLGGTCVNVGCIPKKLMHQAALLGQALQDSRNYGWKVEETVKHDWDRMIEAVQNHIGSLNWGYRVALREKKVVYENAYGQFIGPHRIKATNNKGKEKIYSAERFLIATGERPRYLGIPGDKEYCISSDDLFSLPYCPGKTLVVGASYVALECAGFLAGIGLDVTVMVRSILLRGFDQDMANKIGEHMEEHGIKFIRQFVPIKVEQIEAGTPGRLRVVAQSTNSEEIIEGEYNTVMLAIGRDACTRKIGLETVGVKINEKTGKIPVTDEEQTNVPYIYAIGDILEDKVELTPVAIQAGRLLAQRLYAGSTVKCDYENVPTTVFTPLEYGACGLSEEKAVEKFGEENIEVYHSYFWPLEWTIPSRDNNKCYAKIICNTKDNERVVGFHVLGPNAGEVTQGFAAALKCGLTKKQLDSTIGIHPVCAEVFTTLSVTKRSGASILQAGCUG
T2 sequence (Q16881 151-649): as above

## Cl.N#Cc1c(-c2cccnc2)[n+]([O-])c2cc(F)c(N3CCOCC3)cc2[n+]1[O-] [1d*HCl, 6-Fluoro-7-(morpholin-4-yl)-3-(pyridin-3-yl)quinoxaline-2-carbonitrile-1,4-dioxide hydrochloride]
MCF7 cells
  Annexin V-positive cells: induced Annexin V-positive cells statistically significantly
[1]; 2h after treatment
  DCF fluorescence (induction of reactive oxygen species): significant increase in DCF fluorescence
[1]; after 8h of treatment
  induction of reactive oxygen species (ROS): much higher
TrxRl
  inhibition of TrxRl activity in cells: 70-80%
GR
  GR activity in cells: not inhibited
TrxRl covalent dimers
  formation of TrxRl covalent dimers (130 kDa band): induces the formation of TrxRl covalent dimers
p53
  induction of p53: did not detect a significant induction of p53
Cancer cells; 5 µM 1d*HCl with 50 µM BSO
  effect of combination with BSO on cell growth: have an additive effect and completely eradicated cancer cells
Cancer cells; in the presence of NAC
  dose of 1d*HCl at which additive effect with 50 µM BSO is observed: 10 µM
